From patent US20060039867A1, “Method for treating sleep-related breathing disorders with setiptiline” (Cypress Bioscience, Inc., priority 2004, published 2006)
Read-outs that look alike come from different tables or passages of the source. Values belong to the compound of their own block, whether it stands above or below them.

Key:
[1] = target: T1, 5HT1A sertotonin receptor (Homo sapiens, UniProt P08908); test: Affinity for the 5HT1A serotonin receptor; type: binding; conditions: read-out: affinity for the 5HT1A sertotonin receptor (pKi) (converted)
T1 sequence (P08908 1-422): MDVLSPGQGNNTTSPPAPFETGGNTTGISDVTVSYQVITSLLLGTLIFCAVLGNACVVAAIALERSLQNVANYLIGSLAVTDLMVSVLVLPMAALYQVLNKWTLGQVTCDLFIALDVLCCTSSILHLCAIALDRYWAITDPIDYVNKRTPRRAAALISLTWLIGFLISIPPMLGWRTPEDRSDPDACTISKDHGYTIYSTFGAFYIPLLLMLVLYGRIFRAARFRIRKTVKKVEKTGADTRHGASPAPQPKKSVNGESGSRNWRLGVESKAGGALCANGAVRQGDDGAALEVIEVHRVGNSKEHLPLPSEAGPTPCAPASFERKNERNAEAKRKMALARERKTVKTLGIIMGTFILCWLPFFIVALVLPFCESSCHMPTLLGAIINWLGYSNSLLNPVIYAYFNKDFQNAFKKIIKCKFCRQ

[2] = target: T2, 5HT2C (Homo sapiens, UniProt P28335); conditions: read-out: Mirtazapine (Ki); 5HT2C receptor; from de Boer et al., 1996; cited from earlier work
T2 sequence (P28335 33-458, species assumed): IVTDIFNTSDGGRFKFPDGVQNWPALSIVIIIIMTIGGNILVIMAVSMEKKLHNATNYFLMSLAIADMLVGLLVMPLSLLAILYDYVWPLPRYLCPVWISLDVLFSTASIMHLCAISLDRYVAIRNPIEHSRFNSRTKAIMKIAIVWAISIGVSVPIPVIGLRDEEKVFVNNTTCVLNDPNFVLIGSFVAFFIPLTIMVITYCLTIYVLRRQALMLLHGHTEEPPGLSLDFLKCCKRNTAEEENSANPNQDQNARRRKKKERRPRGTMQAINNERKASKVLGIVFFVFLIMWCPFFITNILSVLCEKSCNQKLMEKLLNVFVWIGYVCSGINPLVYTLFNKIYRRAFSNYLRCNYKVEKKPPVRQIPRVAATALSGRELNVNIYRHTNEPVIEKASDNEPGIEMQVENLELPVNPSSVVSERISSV

[3] = target: 5HT2, non-selective; conditions: read-out: Mirtazapine (Ki); 5HT2, non-selective receptor; from de Boer et al., 1996; cited from earlier work
[4] = target: α2, non-selective; conditions: read-out: Mirtazapine (Ki); α2, non-selective receptor; from de Boer et al., 1996; cited from earlier work
[5] = target: α1, non-selective; conditions: read-out: Mirtazapine (Ki); α1, non-selective receptor; from de Boer et al., 1996; cited from earlier work
[6] = target: T3, 5HT3 (Homo sapiens, UniProt P46098); conditions: read-out: Mirtazapine (Ki); 5HT3 receptor; from de Boer et al., 1996; cited from earlier work
T3 sequence (P46098 24-478): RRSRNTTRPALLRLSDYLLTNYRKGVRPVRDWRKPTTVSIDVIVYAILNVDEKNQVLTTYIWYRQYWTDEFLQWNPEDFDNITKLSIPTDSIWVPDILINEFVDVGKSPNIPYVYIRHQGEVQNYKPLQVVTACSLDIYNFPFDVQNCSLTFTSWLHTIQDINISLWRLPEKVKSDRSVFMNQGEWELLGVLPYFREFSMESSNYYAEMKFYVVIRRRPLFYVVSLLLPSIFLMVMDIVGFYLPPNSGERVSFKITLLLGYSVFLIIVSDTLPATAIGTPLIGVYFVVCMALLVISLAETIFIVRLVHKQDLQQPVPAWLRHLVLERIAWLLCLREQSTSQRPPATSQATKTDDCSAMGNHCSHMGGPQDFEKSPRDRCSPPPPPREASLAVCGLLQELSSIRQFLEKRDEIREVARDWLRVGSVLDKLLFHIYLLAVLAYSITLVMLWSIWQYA

[7] = target: T2, 5HT2C; test: Receptor binding, 5HT2C; conditions: 5HT2C receptor; read-out: Setiptiline (Ki)
From the text: (§1) 5HT3 antagonists are used to treat various maladies of the gastrointestinal tract, such as irritable bowel syndrome-diarrhea predominant and nausea and vomiting associated with chemotherapy. One potentially serious side effect of strong 5HT3 antagonists is constipation, which in some cases may be so severe as to lead to ischemic colitis.

[8] = target: T4, Muscarinic M1 (Homo sapiens, UniProt P11229); test: Receptor binding, Muscarinic M1; conditions: read-out: Setiptiline (Ki)
T4 sequence (P11229 1-460): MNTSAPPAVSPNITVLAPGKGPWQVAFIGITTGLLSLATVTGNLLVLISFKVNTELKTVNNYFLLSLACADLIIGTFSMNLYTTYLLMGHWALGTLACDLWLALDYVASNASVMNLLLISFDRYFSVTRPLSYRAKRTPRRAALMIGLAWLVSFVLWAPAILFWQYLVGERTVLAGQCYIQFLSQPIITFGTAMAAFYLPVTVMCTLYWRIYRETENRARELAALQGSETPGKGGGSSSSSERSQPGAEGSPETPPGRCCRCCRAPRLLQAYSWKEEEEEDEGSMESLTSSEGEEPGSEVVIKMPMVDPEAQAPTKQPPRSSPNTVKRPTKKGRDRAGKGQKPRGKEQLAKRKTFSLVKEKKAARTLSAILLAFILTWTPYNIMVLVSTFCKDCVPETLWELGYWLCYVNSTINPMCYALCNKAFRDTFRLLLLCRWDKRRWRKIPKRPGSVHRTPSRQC
From the text: as §1

[9] = target: α2, non-selective; test: Receptor binding, α2 non-selective; conditions: read-out: Setiptiline (Ki)
From the text: as §1

[10] = target: α1, non-selective; test: Receptor binding, α1 non-selective; conditions: read-out: Setiptiline (Ki)
From the text: as §1

[11] = target: SERT (Homo sapiens, UniProt P31645); test: Receptor binding, SERT; conditions: read-out: Setiptiline (Ki)
SERT, sequence (P31645 whole entry, species assumed): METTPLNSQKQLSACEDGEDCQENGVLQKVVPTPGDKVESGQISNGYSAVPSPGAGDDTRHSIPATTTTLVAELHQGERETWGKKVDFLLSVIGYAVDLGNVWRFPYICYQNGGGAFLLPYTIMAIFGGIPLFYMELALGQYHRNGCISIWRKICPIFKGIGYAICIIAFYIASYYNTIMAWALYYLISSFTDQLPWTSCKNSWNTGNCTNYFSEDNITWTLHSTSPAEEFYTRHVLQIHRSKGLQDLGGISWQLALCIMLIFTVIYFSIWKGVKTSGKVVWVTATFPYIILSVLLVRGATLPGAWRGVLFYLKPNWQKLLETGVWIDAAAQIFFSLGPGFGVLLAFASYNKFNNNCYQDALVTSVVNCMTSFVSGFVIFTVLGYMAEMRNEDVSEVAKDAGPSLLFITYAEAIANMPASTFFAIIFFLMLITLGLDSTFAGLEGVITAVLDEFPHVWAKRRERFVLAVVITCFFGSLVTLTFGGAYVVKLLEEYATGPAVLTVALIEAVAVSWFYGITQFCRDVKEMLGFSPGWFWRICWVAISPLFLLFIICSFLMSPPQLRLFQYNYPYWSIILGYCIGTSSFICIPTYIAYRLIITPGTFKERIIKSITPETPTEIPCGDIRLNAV
From the text: as §1

[12] = target: 5HT2, non-selective; test: Receptor binding, 5HT2 non-selective; conditions: 5HT2, non-selective receptor; read-out: Setiptiline (Ki)
From the text: as §1

[13] = target: NET (Homo sapiens, UniProt P23975); test: Receptor binding, NET; conditions: read-out: Setiptiline (Ki)
NET, sequence (P23975 whole entry): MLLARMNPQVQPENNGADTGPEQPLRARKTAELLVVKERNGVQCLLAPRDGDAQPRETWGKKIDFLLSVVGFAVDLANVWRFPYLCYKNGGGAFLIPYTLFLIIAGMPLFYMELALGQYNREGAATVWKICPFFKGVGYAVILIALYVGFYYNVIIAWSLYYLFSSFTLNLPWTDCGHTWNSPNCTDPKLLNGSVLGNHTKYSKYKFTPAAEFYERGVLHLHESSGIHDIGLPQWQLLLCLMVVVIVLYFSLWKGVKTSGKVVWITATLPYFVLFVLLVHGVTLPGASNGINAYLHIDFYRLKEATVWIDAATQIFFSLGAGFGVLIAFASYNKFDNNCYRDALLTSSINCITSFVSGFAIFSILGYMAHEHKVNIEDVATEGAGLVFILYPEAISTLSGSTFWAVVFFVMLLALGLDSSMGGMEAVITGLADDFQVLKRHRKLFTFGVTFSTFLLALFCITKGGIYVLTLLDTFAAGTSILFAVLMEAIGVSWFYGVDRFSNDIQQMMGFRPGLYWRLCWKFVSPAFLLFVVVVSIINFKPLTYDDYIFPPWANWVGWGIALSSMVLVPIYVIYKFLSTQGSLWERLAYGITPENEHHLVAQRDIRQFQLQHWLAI
From the text: as §1

[14] = target: T3, 5HT3; test: Receptor binding, 5HT3; conditions: 5HT3 receptor; read-out: Setiptiline (Ki)
From the text: as §1

Ki [1]: 85.1 nM
SMILES: CC1CN(c2cccc(Cl)c2)CCN1CCCn1nc2ccccn2c1=O (centres unmarked) [MER 810]

SMILES: CN1CCN2c3ncccc3Cc3ccccc3C2C1 (centres unmarked) [Mirtazapine]
Ki [2]: 13 nM
Ki [3]: 6.3 nM
Ki [4]: 50 nM
Ki [5]: 501 nM
Ki [6]: 79 nM

Ki [7]: 0.47 nM
Ki [8]: 258 nM
Ki [9]: 93 nM
Ki [10]: 144 nM
Ki [11]: > 10 µM
Ki [12]: 0.71 nM
Ki [13]: 1960 nM
Ki [14]: 757 nM
SMILES: CN1CCC2=C(C1)c1ccccc1Cc1ccccc12
